# Laboratory results: patent US8263606B2 (Xenon Pharmaceuticals Inc., priority 2008, dated 2012)
# Where a name gives a salt, the structure may show the parent alone.
# Columns and labels:
# [1] = test system: sodium channel; experiment: Guanidine influx assay (14C-guanidine radiotracer flux, in vitro); format: cell-based, human or rat; conditions: guanidine influx assay using a known cell line that expresses a sodium channel
# How it was run: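 IC50 derives from a four-parameter logistic fit of 14C-guanidine uptake, test agent serially half-diluted around a 1 μM midpoint. Flux was driven by aconitine in low-sodium HEPES/choline saline at ambient temperature, using endogenous or recombinant human or rat sodium-channel cell lines plated ~100,000/well for 20–24 h.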
# [2] = molecular target: CYP3A4 (Homo sapiens, UniProt P08684); experiment: Cytochrome P450 (CYP450) Inhibition Assay, CYP3A4 (Vivid fluorescence, BOMCC substrate); conditions: human, P450 Baculosomes (recombinant CYP3A4), probe BOMCC (Vivid substrate)
# Chain of CYP3A4 (P08684 whole entry): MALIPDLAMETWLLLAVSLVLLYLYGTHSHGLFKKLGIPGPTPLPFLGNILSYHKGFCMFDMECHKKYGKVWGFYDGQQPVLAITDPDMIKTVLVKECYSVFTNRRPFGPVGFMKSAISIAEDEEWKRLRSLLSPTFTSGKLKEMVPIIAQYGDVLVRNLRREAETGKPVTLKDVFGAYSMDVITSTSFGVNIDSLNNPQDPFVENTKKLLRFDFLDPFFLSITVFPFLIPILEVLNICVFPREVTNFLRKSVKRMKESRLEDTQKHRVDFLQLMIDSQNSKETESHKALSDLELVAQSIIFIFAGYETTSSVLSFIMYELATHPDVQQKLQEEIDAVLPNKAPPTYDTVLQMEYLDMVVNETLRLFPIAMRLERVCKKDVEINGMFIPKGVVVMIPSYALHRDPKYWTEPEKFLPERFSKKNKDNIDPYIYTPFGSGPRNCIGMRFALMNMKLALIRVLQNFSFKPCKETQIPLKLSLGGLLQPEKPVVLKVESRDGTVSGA
Compound,IC50 [1] [nM],inhibition at 10 µM [2] [%],IC50 ([1]; activity level class) [nM]
"Nc1cccnc1CN1C(=O)C2(COc3cc4c(cc32)OCCO4)c2ccccc21 (stereo not shown) [Example 11.97, 1′-[(3-aminopyridin-2-yl)methyl]-2,3-dihydrospiro[furo[2,3-g][1,4]benzodioxine-8,3′-indol]-2′(1′H)-one hydrobromide]",1 to 100,> 50,–
"O=C1N(Cc2ccc(-c3ccccc3)cc2)c2ccccc2C12COc1cc3c(cc12)CCO3 (stereo not shown) [Example 4.15, 1′-(biphenyl-4-ylmethyl)-5,6-dihydrospiro[benzo[1,2-b:5,4-b′]difuran-3,3′-indol]-2′(1′H)-one]",–,< 50,1 to 100
"O=C1N(Cc2ccc(C(F)(F)F)o2)c2cccc(Cl)c2C12COc1cc3c(cc12)OCO3 (stereo not shown) [Example 4.90, 4′-chloro-1′-{[5-(trifluoromethyl)-2-furyl]methyl}spiro[furo[2,3-f][1,3]benzodioxole-7,3′-indol]-2′(1′H)-one]",–,> 50,1 to 100
"O=C1N(Cc2cc(Br)no2)c2ccccc2C12COc1cc3c(cc12)CCO3 (stereo not shown) [Example 4.17, 1-[(3-bromoisoxazol-5-yl)methyl]-5,6-dihydrospiro[benzo[1,2-b:5,4-b′]difuran-3,3′-indol]-2′(1′H)-one]",–,> 50,1 to 100
"NC(=O)c1cccc(CN2C(=O)C3(COc4cc5c(cc43)OCCO5)c3ccccc32)n1 (stereo not shown) [Example 42, 6-[(2′-oxo-2,3-dihydrospiro[furo[2,3-g][1,4]benzodioxine-8,3′-indol]-1′(2′H)-yl)methyl]pyridine-2-carboxamide]",1 to 100,> 50,–
"CC(C)(C)OC(=O)NC(CCN1C(=O)C2(COc3cc4c(cc32)OCO4)c2ccccc21)C1CC1 (stereo not shown) [Example 4.78, tert-butyl [1-cyclopropyl-3-(2′-oxospiro[furo[2,3-f][1,3]benzodioxole-7,3′-indol]-1′(2′H)-yl)propyl]carbamate]",–,> 50,1 to 100
"O=C1N(Cc2ccc(C(F)(F)F)o2)c2ccccc2C12CCOc1cc3c(cc12)CCO3 (stereo not shown) [Example 4.70, 1-{[5-(trifluoromethyl)furan-2-yl]methyl}-2,3,6,7-tetrahydrospiro[furo[3,2-g]chromene-5,3′-indol]-2′(1′H)-one]",–,> 50,1000 to 10000
"CCC(=O)CN1C(=O)[C@@]2(COc3cc4c(cc32)OCCO4)c2ccccc21 [Example 4.109, (S)-1′-(2-oxobutyl)-3,7-dihydro-2H-spiro[benzofuro[5,6-b][1,4]dioxine-8,3′-indolin]-2′-one]",–,< 50,1 to 100
"O=C1N(Cc2ccccc2F)c2ccccc2C12COc1cc3c(cc12)CCO3 (stereo not shown) [Example 4.12, 1′-(2-fluorobenzyl)-5,6-dihydrospiro[benzo[1,2-b:5,4-b′]difuran-3,3′-indol]-2′(1′H)-one]",–,< 50,1 to 100

# Results, then the molecule that gave them:
IC50 [1] [nM],inhibition at 10 µM [2] [%],IC50 ([1]; activity level class) [nM],Compound
100 to 1000,> 50,–,"O=C1N(Cc2ccc(-c3ccncc3)o2)c2ccccc2C12COc1cc3c(cc12)CCO3 (stereo not shown) [Example 11.15, 1′-[(5-pyridin-4-ylfuran-2-yl)methyl]-5,6-dihydrospiro[benzo[1,2-b:5,4-b′]difuran-3,3′-indol]-2′(1′H)-one]"
100 to 1000,> 50,–,"COc1cc2c(cc1C)[C@]1(CO2)C(=O)N(CN2CCN(C)CC2)c2ccccc21 [Example 11.65, (3R)-6-methoxy-5-methyl-1′-[(4-methylpiperazin-1-yl)methyl]spiro[1-benzofuran-3,3′-indol]-2′(1′H)-one hydrogen chloride]"
1000 to 10000,< 50,–,"CS(=O)(=O)Nc1ccc2c(c1)OCC21C(=O)N(C[C@H]2CCCO2)c2ccccc21 (stereo partly drawn) [Example 11.48, N-{2′-oxo-1′-[(2R)-tetrahydrofuran-2-ylmethyl]-1′,2′-dihydrospiro[1-benzofuran-3,3′-indol]-6-yl}methanesulfonamide]"
–,< 50,100 to 1000,"O=C1N(Cc2ncccc2C(F)(F)F)c2ccccc2C12COc1cc3c(cc12)OCCC3 (stereo not shown) [Example 5.29, 1-{[3-(trifluoromethyl)pyridin-2-yl]methyl}-7,8-dihydro-6H-spiro[furo[2,3-g]chromene-3,3′-indol]-2′(1′H)-one]"
–,> 50,1000 to 10000,"N#Cc1cc2c(cc1F)OCC21C(=O)N(Cc2ccccc2C(F)(F)F)c2ccccc21 (stereo not shown) [Example 9.50, 6-fluoro-2′-oxo-1′-[2-(trifluoromethyl)benzyl]-1′,2′-dihydrospiro[1-benzofuran-3,3′-indole]-5-carbonitrile]"
–,< 50,1 to 100,"Cc1nonc1CN1C(=O)C2(COc3cc4c(cc32)OCCO4)c2ccccc21 (stereo not shown) [Example 7.18, 1′-[(4-methyl-1,2,5-oxadiazol-3-yl)methyl]-2,3-dihydrospiro[furo[2,3-g][1,4]benzodioxine-8,3′-indol]-2′(1′H)-one]"
–,< 50,1 to 100,"COC(=O)c1ccccc1CN1C(=O)C2(COc3cc4c(cc32)CCO4)c2ccccc21 (stereo not shown) [Example 9.14, methyl 2-[(2′-oxo-5,6-dihydrospiro[benzo[1,2-b:5,4-b′]difuran-3,3′-indol]-1′(2′H)-yl)methyl]benzoate]"
1000 to 10000,< 50,–,"COc1ccccc1NC(=O)c1ccc(CN2C(=O)C3(COc4cc5c(cc43)CCO5)c3ccccc32)cc1 (stereo not shown) [Example 12.25, N-(2-methoxyphenyl)-4-[(2′-oxo-5,6-dihydrospiro[benzo[1,2-b:5,4-b′]difuran-3,3′-indol]-1′(2′H)-yl)methyl]benzamide]"
–,> 50,1 to 100,O=C1N(Cc2ncccc2C(F)(F)F)c2ccccc2C12COc1cc3c(cc12)OCCO3 (stereo not shown) [Example 7.13]
1000 to 10000,> 50,–,"COc1ccc(CCNC(=O)c2ccccc2CN2C(=O)C3(COc4cc5c(cc43)CCO5)c3ccccc32)cc1 (stereo not shown) [Example 12.22, N-[2-(4-methoxyphenyl)ethyl]-2-[(2′-oxo-5,6-dihydrospiro[benzo[1,2-b:5,4-b′]difuran-3,3′-indol]-1′(2′H)-yl)methyl]benzamide]"
–,> 50,100 to 1000,"O=C1N(Cc2ccc(O)cn2)c2ccccc2C12COc1cc3c(c(F)c12)OCCO3 (stereo not shown) [Example 5.27, 9-fluoro-1′-[(5-hydroxypyridin-2-yl)methyl]-2,3-dihydrospiro[furo[2,3-g][1,4]benzodioxine-8,3′-indol]-2′(1′H)-one]"
–,> 50,1000 to 10000,"O=C1N(Cc2ccc(C(F)(F)F)o2)c2ccccc2C12COc1cc(F)c(F)cc12 (stereo not shown) [Example 9.32, 5,6-difluoro-1′-{[5-(trifluoromethyl)furan-2-yl]methyl}spiro[1-benzofuran-3,3′-indol]-2′(1′H)-one]"
–,< 50,1 to 100,"O=C1N(Cc2ncccc2C(F)(F)F)c2ccccc2C12COc1cc3c(c(F)c12)OCCO3 (stereo not shown) [Example 5.26, 9-fluoro-1′-{[3-(trifluoromethyl)pyridin-2-yl]methyl}-2,3-dihydrospiro[furo[2,3-g][1,4]benzodioxine-8,3′-indol]-2′(1′H)-one]"
–,> 50,1 to 100,O=C1N(Cc2ccc(C(F)(F)F)cn2)c2ccccc2C12COc1cc3c(cc12)OCCO3 (stereo not shown) [Example 7.12]
